Results taken from ChEMBL document CHEMBL1781981, “Identification of a novel series of 3-piperidinyl-5-sulfonylindazoles as potent 5-HT6 ligands” (Bioorg Med Chem Lett, 2009).

Target: 5-hydroxytryptamine receptor 6 (Homo sapiens, UniProt P50406)
Assay: Antagonist activity at human 5HT6 receptor expressed in HeLa cells assessed as inhibition of 5-HT-induced cAMP accumulation
Format: functional, cell-based

Chain of 5-hydroxytryptamine receptor 6 (P50406 whole entry): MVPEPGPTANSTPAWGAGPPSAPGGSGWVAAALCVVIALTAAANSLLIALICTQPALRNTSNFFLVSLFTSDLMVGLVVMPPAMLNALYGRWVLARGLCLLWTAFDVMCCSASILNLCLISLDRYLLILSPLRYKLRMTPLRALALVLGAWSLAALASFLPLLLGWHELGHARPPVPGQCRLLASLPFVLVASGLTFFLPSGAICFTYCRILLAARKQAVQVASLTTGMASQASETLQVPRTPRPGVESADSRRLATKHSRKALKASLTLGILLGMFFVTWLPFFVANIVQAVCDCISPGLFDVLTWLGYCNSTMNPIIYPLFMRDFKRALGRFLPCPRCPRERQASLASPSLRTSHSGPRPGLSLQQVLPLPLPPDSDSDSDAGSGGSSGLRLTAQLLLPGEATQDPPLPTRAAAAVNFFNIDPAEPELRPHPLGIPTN

Row | IC50 | Imax | SMILES
1 | 102 nM | 100% | CN1CCC(c2n[nH]c3ccc(S(=O)(=O)c4ccc5ccccc5c4)cc23)CC1
2 | 754 nM | 95% | CN1CCC(c2n[nH]c3ccc(S(=O)(=O)c4cccc(Cl)c4)cc23)CC1
3 | 251 nM | 100% | CN1CCC(c2n[nH]c3ccc(S(=O)(=O)c4cccc5ccccc45)cc23)CC1
4 | 108 nM | 100% | CC(C)c1ccc(S(=O)(=O)c2ccc3[nH]nc(C4CCN(C)CC4)c3c2)cc1
